Patent US9266879B2, “Naphthridine derivatives as PI3K inhibitors for the treatment of cancer and immune-inflammatory disease” (Karus Therapeutic Limited, priority 2010, dated 2016)
Like-named read-outs stand apart in the source and are kept apart here.

Columns and labels:
MCF7 Breast Tumour Cell = assay: MCF7 breast tumour cell growth inhibition; assay type: cell-based; settings: Homo sapiens
PI3K-p110β = PI3K-p110β (Homo sapiens, UniProt P42338); assay: Biochemical PI3K-p110β inhibition
PI3K-p110γ = PI3K-p110γ (Homo sapiens, UniProt P48736); assay: PI3K-p110γ inhibition; assay type: biochemical
PI3K-p110δ = PI3K-p110δ (Homo sapiens, UniProt O00329); assay: PI3K-p110δ inhibition; assay type: biochemical
PI3K-p110α = PI3K-p110α (Homo sapiens, UniProt P42336); assay: PI3K-p110α inhibition; assay type: biochemical
[1] = read-out: Biochemical IC50, PI3K-p110β

Sequence of PI3K-p110β (P42338 whole entry): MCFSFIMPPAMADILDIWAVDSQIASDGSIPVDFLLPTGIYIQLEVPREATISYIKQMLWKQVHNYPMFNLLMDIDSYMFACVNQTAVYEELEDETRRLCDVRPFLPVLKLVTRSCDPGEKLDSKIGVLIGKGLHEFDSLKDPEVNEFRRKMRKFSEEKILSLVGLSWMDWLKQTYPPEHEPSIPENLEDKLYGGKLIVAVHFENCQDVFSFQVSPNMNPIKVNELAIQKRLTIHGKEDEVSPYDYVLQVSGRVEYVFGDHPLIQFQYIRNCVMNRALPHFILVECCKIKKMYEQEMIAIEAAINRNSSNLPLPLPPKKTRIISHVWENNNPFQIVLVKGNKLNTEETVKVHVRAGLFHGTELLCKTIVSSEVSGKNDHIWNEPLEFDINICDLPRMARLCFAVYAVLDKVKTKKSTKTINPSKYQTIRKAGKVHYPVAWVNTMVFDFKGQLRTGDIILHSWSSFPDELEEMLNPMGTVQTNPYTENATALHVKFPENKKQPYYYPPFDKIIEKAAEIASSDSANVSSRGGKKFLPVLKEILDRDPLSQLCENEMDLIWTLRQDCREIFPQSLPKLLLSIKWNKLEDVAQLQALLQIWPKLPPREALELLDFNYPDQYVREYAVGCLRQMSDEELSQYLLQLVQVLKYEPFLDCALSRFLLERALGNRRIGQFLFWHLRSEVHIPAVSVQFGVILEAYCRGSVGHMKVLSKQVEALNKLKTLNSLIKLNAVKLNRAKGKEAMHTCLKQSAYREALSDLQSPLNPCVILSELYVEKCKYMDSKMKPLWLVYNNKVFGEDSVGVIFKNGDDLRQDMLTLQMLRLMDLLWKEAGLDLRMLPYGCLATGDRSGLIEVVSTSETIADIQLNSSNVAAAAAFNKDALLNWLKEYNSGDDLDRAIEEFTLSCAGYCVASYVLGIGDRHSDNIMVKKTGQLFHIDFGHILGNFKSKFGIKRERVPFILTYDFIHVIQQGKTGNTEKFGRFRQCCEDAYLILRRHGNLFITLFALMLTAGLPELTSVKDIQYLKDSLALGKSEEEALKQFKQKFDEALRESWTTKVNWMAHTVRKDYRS
Sequence of PI3K-p110β (P27986 whole entry partner): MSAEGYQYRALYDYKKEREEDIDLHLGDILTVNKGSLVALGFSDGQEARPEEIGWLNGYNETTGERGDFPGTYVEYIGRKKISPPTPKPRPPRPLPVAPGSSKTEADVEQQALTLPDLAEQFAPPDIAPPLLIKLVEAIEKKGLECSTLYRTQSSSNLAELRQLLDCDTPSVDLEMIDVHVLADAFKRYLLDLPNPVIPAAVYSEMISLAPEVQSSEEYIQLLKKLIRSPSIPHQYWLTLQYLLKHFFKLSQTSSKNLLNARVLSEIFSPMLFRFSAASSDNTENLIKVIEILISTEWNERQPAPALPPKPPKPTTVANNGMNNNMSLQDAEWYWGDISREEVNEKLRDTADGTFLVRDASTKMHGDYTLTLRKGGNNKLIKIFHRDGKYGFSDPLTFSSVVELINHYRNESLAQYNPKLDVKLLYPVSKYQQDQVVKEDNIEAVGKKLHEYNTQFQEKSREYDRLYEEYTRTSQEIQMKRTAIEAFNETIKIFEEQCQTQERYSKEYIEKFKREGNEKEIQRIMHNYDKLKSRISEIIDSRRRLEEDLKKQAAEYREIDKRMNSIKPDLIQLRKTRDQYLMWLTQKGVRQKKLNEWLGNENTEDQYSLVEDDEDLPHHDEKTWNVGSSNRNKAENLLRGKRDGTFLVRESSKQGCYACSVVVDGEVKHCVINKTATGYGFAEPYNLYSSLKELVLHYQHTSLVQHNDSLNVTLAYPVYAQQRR
Sequence of PI3K-p110α (P42336 whole entry): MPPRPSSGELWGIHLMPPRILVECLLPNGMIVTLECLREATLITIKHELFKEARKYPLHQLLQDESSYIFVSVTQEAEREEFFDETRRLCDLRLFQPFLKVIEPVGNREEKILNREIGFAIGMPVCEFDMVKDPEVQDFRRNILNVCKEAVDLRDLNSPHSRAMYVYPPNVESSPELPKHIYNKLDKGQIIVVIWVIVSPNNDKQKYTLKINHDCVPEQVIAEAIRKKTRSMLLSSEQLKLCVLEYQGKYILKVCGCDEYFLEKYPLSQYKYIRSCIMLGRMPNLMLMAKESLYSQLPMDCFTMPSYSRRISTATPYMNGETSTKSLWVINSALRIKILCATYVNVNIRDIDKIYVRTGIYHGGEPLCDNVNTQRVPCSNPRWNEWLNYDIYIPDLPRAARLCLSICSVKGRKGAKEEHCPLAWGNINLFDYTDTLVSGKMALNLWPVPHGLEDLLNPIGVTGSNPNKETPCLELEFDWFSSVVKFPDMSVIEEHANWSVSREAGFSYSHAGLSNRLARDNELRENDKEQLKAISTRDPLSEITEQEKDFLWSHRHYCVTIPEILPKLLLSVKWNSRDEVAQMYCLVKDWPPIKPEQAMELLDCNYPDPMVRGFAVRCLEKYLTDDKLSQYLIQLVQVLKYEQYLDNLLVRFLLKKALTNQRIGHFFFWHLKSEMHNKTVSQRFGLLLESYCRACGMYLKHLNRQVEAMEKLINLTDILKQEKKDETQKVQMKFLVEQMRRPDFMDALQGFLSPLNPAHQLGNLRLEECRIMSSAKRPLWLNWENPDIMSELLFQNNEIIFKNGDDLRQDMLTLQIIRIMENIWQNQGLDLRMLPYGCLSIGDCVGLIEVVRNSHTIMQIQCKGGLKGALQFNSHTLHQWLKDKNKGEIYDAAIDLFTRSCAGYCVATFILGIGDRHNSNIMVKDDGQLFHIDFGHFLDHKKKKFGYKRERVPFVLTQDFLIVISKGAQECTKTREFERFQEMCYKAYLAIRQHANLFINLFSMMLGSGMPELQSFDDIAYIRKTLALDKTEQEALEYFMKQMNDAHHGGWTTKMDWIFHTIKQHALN
Sequence of PI3K-p110α (P27986 whole entry partner): as the sequence (P27986 whole entry partner) above
Sequence of PI3K-p110δ (O00329 whole entry): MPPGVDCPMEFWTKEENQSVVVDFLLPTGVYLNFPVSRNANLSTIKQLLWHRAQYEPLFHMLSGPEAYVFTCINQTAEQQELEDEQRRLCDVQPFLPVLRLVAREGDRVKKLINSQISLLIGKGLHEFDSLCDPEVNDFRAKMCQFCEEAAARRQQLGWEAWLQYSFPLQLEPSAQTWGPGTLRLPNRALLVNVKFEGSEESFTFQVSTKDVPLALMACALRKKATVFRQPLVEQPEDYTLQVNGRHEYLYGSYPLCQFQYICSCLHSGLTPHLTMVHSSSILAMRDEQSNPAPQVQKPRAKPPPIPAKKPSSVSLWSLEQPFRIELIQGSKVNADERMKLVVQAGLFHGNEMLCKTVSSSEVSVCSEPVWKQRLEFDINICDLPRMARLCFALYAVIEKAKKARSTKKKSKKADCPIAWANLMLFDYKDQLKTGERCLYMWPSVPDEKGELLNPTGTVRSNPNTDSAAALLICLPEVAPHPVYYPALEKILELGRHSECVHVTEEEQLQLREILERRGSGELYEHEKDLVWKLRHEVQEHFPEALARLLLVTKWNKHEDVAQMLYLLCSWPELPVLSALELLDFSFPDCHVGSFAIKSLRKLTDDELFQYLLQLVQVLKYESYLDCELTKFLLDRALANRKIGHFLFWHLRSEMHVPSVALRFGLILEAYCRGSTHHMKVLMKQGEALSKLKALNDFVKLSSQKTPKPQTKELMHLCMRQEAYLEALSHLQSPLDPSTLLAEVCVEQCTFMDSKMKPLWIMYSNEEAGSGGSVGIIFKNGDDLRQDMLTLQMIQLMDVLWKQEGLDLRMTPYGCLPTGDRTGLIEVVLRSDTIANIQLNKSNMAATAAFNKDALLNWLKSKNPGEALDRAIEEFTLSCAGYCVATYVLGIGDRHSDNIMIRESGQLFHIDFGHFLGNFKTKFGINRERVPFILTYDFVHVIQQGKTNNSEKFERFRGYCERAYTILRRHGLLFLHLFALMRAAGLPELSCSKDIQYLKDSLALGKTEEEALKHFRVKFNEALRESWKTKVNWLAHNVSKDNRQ
Sequence of PI3K-p110δ (P27986 whole entry partner): as the sequence (P27986 whole entry partner) above
Sequence of PI3K-p110γ (P48736 whole entry): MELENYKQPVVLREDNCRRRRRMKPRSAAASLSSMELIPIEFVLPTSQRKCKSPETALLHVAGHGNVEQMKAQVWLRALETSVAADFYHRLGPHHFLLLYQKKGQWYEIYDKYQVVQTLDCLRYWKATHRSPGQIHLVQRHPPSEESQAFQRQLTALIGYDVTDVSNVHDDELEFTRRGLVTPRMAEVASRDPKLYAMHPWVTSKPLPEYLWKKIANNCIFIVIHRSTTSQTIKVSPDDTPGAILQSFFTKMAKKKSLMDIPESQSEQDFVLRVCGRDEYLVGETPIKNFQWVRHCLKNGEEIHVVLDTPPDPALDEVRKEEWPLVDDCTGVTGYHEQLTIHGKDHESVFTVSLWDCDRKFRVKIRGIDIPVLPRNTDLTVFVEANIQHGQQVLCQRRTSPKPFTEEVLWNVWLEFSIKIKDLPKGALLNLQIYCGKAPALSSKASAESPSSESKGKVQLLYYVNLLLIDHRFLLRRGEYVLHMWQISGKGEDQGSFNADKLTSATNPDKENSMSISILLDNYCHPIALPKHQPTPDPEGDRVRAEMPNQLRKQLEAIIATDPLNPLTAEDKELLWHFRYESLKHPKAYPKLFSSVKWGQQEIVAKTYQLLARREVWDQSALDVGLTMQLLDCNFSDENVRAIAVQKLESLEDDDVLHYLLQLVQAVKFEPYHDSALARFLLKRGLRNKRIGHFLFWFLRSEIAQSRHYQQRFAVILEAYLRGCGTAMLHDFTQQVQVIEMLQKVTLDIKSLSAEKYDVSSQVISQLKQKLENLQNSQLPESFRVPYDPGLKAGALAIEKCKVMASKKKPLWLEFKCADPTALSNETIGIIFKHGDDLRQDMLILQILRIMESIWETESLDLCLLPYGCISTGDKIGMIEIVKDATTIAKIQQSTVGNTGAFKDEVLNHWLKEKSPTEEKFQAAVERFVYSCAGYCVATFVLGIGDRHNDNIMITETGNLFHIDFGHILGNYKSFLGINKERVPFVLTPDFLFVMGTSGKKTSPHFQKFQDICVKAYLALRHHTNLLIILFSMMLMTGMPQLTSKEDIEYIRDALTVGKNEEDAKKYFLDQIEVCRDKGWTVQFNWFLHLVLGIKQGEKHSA

SMILES	IC50 (MCF7 Breast Tumour Cell) [µM]	IC50 (PI3K-p110β; [1]) [µM]	IC50 (PI3K-p110β; isoform panel, second part of table, read-out: IC50 PI3K-p110β) [µM]	IC50 (PI3K-p110γ) [µM]	IC50 (PI3K-p110δ) [nM]	IC50 (PI3K-p110α) [µM]
Nc1ccc(-c2cc3ncccc3c(N3CCOCC3)n2)cc1Cl [E, 2-Chloro-4-(5-morpholin-4-yl-[1,6]naphthyridin-7-yl)-phenylamine]	6.06	0.69				
Nc1ccc(-c2cc3ncccc3c(N3CCOCC3)n2)c(Cl)c1 [F, 3-Chloro-4-(5-morpholin-4-yl-[1,6]naphthyridin-7-yl)-phenylamine]	10.9	3.7				
c1cc(-c2cc3ncccc3c(N3CCOCC3)n2)c2cc[nH]c2c1 [G, 7-(1H-Indol-4-yl)-5-morpholin-4-yl-1,6-naphthyridine]			3.4	> 10	260	> 10
